System: Enterobacter agglomerans AJ13601 strain
Assay: Growth inhibition by organic acid at acidic pH (main culture in jar fermenter)
Assay type: cell-based
Conditions: for Growth inhibition: organic acid 0.5 g/L in main culture medium, pH 4.5, 34° C.
Method: Therefore, an experiment concerning the growth inhibition by an organic acid was performed at an acidic pH.
The Enterobacter agglomerans AJ13601 strain was cultured on LBG agar medium (10 g/L of trypton, 5 g/L of yeast extract, 10 g/L of NaCl and 15 g/L of agar) containing 25 mg/L of tetracycline hydrochloride and 25 mg/L of chloramphenicol at 30° C. for 14 hours, and one platinum loop of the cells were taken and inoculated into 300 mL of a seed culture medium having the following composition in a 1 L-volume jar fermenter to perform seed culture at 34° C. at pH 6.0.
50 g/L of sucrose, 0.4 g/L of magnesium sulfate heptahydrate, 4.0 g/L of ammonium sulfate, 2.0 g/L of monopotassium dihydrogenphosphate, 4.0 g/L of yeast extract, 0.01 g/L of ferrous sulfate heptahydrate, 0.01 g/L manganese sulfate pentahydrate, 0.4 g/L of L-lysine hydrochloride, 0.4 g/L of DL-methionine, 0.4 g/L of DL-α,ε-diaminopimelic acid, 25 mg/L of tetracycline hydrochloride and 25 mg/L of chloramphenicol
pH was controlled by adding ammonia gas during the culture. The seed culture was terminated by observing depletion of the saccharide in the seed culture medium as a marker, and the seed culture broth was inoculated into 300 mL of a main culture medium contained in 1 L-volume jar fermenters in an amount of 20% of the volume of the main culture medium to perform the main culture. The composition of the main culture medium is shown below. When an experiment for the growth inhibition by an organic acid is performed, the experiment was performed by adding the organic acid at a predetermined concentration.
20 g/L of glucose, 0.4 g/L of magnesium sulfate heptahydrate, 5.0 g/L of ammonium sulfate, 6.0 g/L of monopotassium dihydrogenphosphate, 1.5 g/L of sodium chloride, 0.01 g/L of ferrous sulfate heptahydrate, 0.01 g/L of manganese sulfate pentahydrate, 0.8 g/L of L-lysine hydrochloride, 0.6 g/L of DL-methionine, 0.6 g/L of DL-α,ε-diaminopimelic acid, 25 mg/L of tetracycline hydrochloride, 25 mg/L of chloramphenicol, 6.0 g/L of yeast extract and 0.75 g/L of calcium chloride dihydrate
The culture temperature was adjusted to 34° C., and pH was controlled to a predetermined pH by adding ammonia gas.
Experiments for the growth inhibition effect at an acidic pH (pH 4.5) were first performed with various organic acids.

CC(O)C(=O)O (stereo not drawn) [Lactic acid]
Growth inhibition: Not observed | Growth inhibition (listed as lactic acid): growth rate comparable to that obtained with the control medium

CC(=O)O [Acetic acid]
Growth inhibition: Observed | Growth inhibition (listed as acetic acid): evident growth inhibition

O=C(O)CC(O)C(=O)O (stereo not drawn) [malic acid]
Growth inhibition: did not show growth inhibition

O=C(O)CCC(=O)O [Succinic acid]
Growth inhibition: Not observed | Growth inhibition (listed as succinic acid): did not show growth inhibition

O=C(O)/C=C/C(=O)O [fumaric acid]
Growth inhibition: did not show growth inhibition

CCC(=O)O [Propionic acid]
Growth inhibition: Observed | Growth inhibition (listed as propionic acid): evident growth inhibition

O=CO [Formic acid]
growth of cells (formic acid 0.5 g/L, pH 4.5 (FIG. 11)): hardly observed | pH region in which growth inhibition by formic acid was not observed (formic acid concentration 0.5 g/L, inhibition observed at lower pH (FIG. 11)): ≥ 5.5 | Growth inhibition: Observed | Growth inhibition (listed as formic acid): evident growth inhibition | formic acid concentration in the medium at which growth inhibition was not observed (pH 4.5 (FIG. 12)): ≤ 0.20 g/L

From patent US6653110B2 (Ajinomoto Co., Inc., priority 2001, dated 2003)
